Results: PubChem BioAssay AID248 (DTP/NCI, 2004)
“And” between values parts separate entries of the source, which are not always exact repeats. Equal values may be shown once. Inconclusive results and toxic doses are left out. Rule as the data show it: active = T/C of 150% or more; inactive = T/C below 125%.

Tested on: L1210 leukemia ip in BDF1 mice, survival T/C
Experiment: NCI In Vivo Anticancer Drug Screen. Data for tumor model L1210 Leukemia (intraperitoneal) in B6D2F1 (BDF1) mice
Conditions: endpoint: mean survival time, higher = longer survival
Procedure, shortened: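 Read-out is survival time, reported as the treated-group measurement over the vehicle-control measurement.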

[1] = dose: 100.0 mg/kg/injection, schedule: Q01DX009 (ip), vehicle: Klucel (hydroxypropylcellulose) (HPC)
[2] = dose: 100.0 mg/kg/injection, schedule: Q04DX003 (ip), vehicle: Klucel (hydroxypropylcellulose) (HPC)
[3] = dose: 200.0 mg/kg/injection, schedule: Q01DX009 (ip), vehicle: Klucel (hydroxypropylcellulose) (HPC)
[4] = dose: 200.0 mg/kg/injection, schedule: Q04DX003 (ip), vehicle: Klucel (hydroxypropylcellulose) (HPC)
[5] = dose: 400.0 mg/kg/injection, schedule: Q01DX009 (ip), vehicle: Klucel (hydroxypropylcellulose) (HPC)
[6] = dose: 400.0 mg/kg/injection, schedule: Q04DX003 (ip), vehicle: Klucel (hydroxypropylcellulose) (HPC)
[7] = dose: 100.0 mg/kg/injection, schedule: Q01DX001 (ip), vehicle: carboxymethylcellulose (CMC)
[8] = dose: 200.0 mg/kg/injection, schedule: Q01DX001 (ip), vehicle: carboxymethylcellulose (CMC)
[9] = dose: 400.0 mg/kg/injection, schedule: Q01DX001 (ip), vehicle: carboxymethylcellulose (CMC)
[10] = dose: 100.0 mg/kg/injection, schedule: Q01DX009 (ip), vehicle: saline with Tween-80
[11] = dose: 200.0 mg/kg/injection, schedule: Q01DX009 (ip), vehicle: saline with Tween-80
[12] = dose: 100.0 mg/kg/injection, schedule: Q04DX002 (ip), vehicle: Klucel (hydroxypropylcellulose) (HPC)
[13] = dose: 200.0 mg/kg/injection, schedule: Q04DX002 (ip), vehicle: Klucel (hydroxypropylcellulose) (HPC)
[14] = dose: 400.0 mg/kg/injection, schedule: Q04DX002 (ip), vehicle: Klucel (hydroxypropylcellulose) (HPC)
[15] = dose: 100.0 mg/kg/injection, schedule: Q04DX003 (ip), vehicle: saline with Tween-80
[16] = dose: 200.0 mg/kg/injection, schedule: Q04DX003 (ip), vehicle: saline with Tween-80
[17] = dose: 400.0 mg/kg/injection, schedule: Q04DX003 (ip), vehicle: saline with Tween-80
[18] = dose: 100.0 mg/kg/injection, schedule: Q01DX001 (ip), vehicle: saline
[19] = dose: 200.0 mg/kg/injection, schedule: Q01DX001 (ip), vehicle: saline
[20] = dose: 400.0 mg/kg/injection, schedule: Q01DX001 (ip), vehicle: saline
[21] = dose: 400.0 mg/kg/injection, schedule: Q01DX009 (ip), vehicle: saline with Tween-80

Measured: T/C

CCCCCCCCNC1=C(OC)C(=O)C(NCCCCCCCC)=C(OC)C1=O
inactive: [1] 98 % of control | [2] 96 % of control | [3] 104 % of control | [4] 91 % of control | [5] 98 % of control | [6] 88 % of control

CC(C)=CCC/C(C)=C\C=N\O
inactive: [7] 101 % of control | [8] 95 % of control | [9] 98 % of control

CC(=O)N(C(C)=O)c1ccc(C)cc1
inactive: dose: 100.0 mg/kg/injection, schedule: Q01DX009 (ip), vehicle: saline 109 % of control | dose: 100.0 mg/kg/injection, schedule: Q04DX003 (ip), vehicle: saline 95 % of control | dose: 200.0 mg/kg/injection, schedule: Q01DX009 (ip), vehicle: saline 112 % of control | dose: 200.0 mg/kg/injection, schedule: Q04DX003 (ip), vehicle: saline 108 % of control | dose: 400.0 mg/kg/injection, schedule: Q04DX003 (ip), vehicle: saline 103 % of control

Cc1cc(Cl)c(Cl)cc1NC(=O)C(Br)C(Br)C(=O)O (stereo not drawn)
inactive: [10] 97 % of control | [11] 96 % of control

C(=C\c1cnc2ccccc2n1)/c1ccc2c(c1)OCO2
inactive: [1] 89 % of control | [2] 95 % of control | [3] 92 % of control | [4] 91 % of control | [5] 97 % of control | [6] 93 % of control

CSc1ccccc1NC(=O)c1ccccc1
inactive: [12] 93 % of control | [13] 86 % of control | [14] 96 % of control

CNc1nc[nH]c(=O)c1NC(=O)c1ccccc1
inactive: dose: 45.0 mg/kg/injection, schedule: Q01DX001 (ip), vehicle: Klucel (hydroxypropylcellulose) (HPC) 103 % of control | dose: 90.0 mg/kg/injection, schedule: Q01DX001 (ip), vehicle: Klucel (hydroxypropylcellulose) (HPC) 95 % of control | dose: 180.0 mg/kg/injection, schedule: Q01DX001 (ip), vehicle: Klucel (hydroxypropylcellulose) (HPC) 92 % of control

COc1ccccc1N(C(C)=O)C1=C(Cl)C(=O)c2ccccc2C1=O
inactive: dose: 10.0 mg/kg/injection, schedule: Q01DX001 (ip), vehicle: saline 97 % of control | dose: 20.0 mg/kg/injection, schedule: Q01DX001 (ip), vehicle: saline 97 % of control

CC[C@H](CC[C@@H](C)[C@H]1CC[C@H]2[C@@H]3CC=C4C[C@@H](OC(=O)CN5CCNCC5)CC[C@]4(C)[C@H]3CC[C@]12C)C(C)C
inactive: dose: 100.0 mg/kg/injection, schedule: Q01DX001 (ip), vehicle: water 98 % of control | dose: 100.0 mg/kg/injection, schedule: Q01DX009 (ip), vehicle: water 105 % of control | dose: 100.0 mg/kg/injection, schedule: Q04DX003 (ip), vehicle: water 100 % of control | dose: 200.0 mg/kg/injection, schedule: Q01DX001 (ip), vehicle: water 98 % of control | dose: 200.0 mg/kg/injection, schedule: Q01DX009 (ip), vehicle: water 89 % of control | dose: 200.0 mg/kg/injection, schedule: Q04DX003 (ip), vehicle: water 100 % of control | dose: 400.0 mg/kg/injection, schedule: Q01DX001 (ip), vehicle: water 91 % of control | dose: 400.0 mg/kg/injection, schedule: Q04DX003 (ip), vehicle: water 98 % of control

Nc1nc2ncc(CCCNc3ccc(C(=O)NC(CCC(=O)O)C(=O)O)cc3)nc2c(=O)[nH]1 (stereo not drawn)
inactive: dose: 50.0 mg/kg/injection, schedule: Q01DX001 (ip), vehicle: carboxymethylcellulose (CMC) 94 % of control | [7] 108 % of control | [8] 94 % of control

CC(=O)Nc1cccc(C(C)=O)c1[N+](=O)[O-]
inactive: [15] 100 % of control | [16] 94 % of control | [17] 100 % of control

Cc1cccc(NS(=O)(=O)c2ccccc2)c1C
inactive: [1] 91 % of control | [2] 97 % of control | [3] 91 % of control | [4] 93 % of control | [5] 98 % of control | [6] 98 % of control

CC(=O)Nc1ccc(OC(=O)Oc2ccc(NC(C)=O)cc2)cc1
inactive: dose: 50.0 mg/kg/injection, schedule: Q01DX001 (ip), vehicle: saline 101 % of control | [18] 97 % of control | [19] 95 % of control | [20] 95 % of control

O=C1OC(=O)C2C3CCCCC3=C3CCCCC3C12 (stereo not drawn)
inactive: [12] 96 % of control | [2] 101 % of control | [13] 101 % of control | [4] 105 % of control | [14] 93 % of control | [6] 103 % of control

O=C(O)/C=C/c1ccc(C(NC(=O)N2C(=O)C=CC2=O)NC(=O)N2C(=O)C=CC2=O)cc1
inactive: [7] 100 % of control | [8] 95 % of control | [9] 97 % of control

Nc1ncn(C2OC(CO)C(O)C2O)n1 (stereo not drawn)
inactive: dose: 100.0 mg/kg/injection, schedule: Q01DX005 (ip), vehicle: saline 105 % of control | dose: 200.0 mg/kg/injection, schedule: Q01DX005 (ip), vehicle: saline 103 % of control

COc1cc(/C=N/NC(=O)CNC(=O)c2ccccc2)ccc1O
inactive: [10] 102 % of control | [11] 102 % of control | [21] 101 % of control

CCN1CC1 (tested in a mixture with another compound)
inactive: dose: 1.56 mg/kg/injection, schedule: Q01DX001 (ip), vehicle: Klucel (hydroxypropylcellulose) (HPC) 101 % of control | dose: 3.12 mg/kg/injection, schedule: Q01DX001 (ip), vehicle: Klucel (hydroxypropylcellulose) (HPC) 99 % of control | dose: 6.25 mg/kg/injection, schedule: Q01DX001 (ip), vehicle: Klucel (hydroxypropylcellulose) (HPC) 104 % of control | dose: 25.0 mg/kg/injection, schedule: Q01DX001 (ip), vehicle: other 111 % of control

CC(=O)c1cccc(NC(=O)Oc2ccc(Cl)cc2Cc2ccccc2)c1
inactive: [1] 101 % of control | [3] 101 % of control | [5] 95 % of control

Oc1cccc(/C=N/NC(=S)Nc2ccccc2)c1
inactive: [1] 104 % of control | [3] 96 % of control | [5] 93 % of control

O=[N+]([O-])c1ccc(/C=N/N2CCN(/N=C/c3ccc([N+](=O)[O-])cc3)CC2)cc1
inactive: [18] 96 % of control | [19] 92 % of control | [20] 92 % of control

O=[N+]([O-])c1ccc(S(=O)(=O)Nc2ccccc2-c2ccccc2)cc1
inactive: [10] 96 % of control | [15] 91 % of control | [11] 98 % of control | [16] 91 % of control | [21] 96 % of control | [17] 86 % of control

Cc1ccccc1C(=O)NCC(=O)O
inactive: [10] 91 % of control | [15] 95 % of control | [11] 91 % of control | [16] 94 % of control | [21] 86 % of control | [17] 98 % of control

CCC/C(=N\NC(=O)c1ccccc1O)c1ccccc1
inactive: [7] 105 % of control | dose: 100.0 mg/kg/injection, schedule: Q01DX009 (ip), vehicle: carboxymethylcellulose (CMC) 102 % of control and 89 % of control | dose: 100.0 mg/kg/injection, schedule: Q04DX002 (ip), vehicle: carboxymethylcellulose (CMC) 95 % of control and 107 % of control | dose: 100.0 mg/kg/injection, schedule: Q04DX003 (ip), vehicle: carboxymethylcellulose (CMC) 93 % of control | [8] 100 % of control | dose: 200.0 mg/kg/injection, schedule: Q01DX009 (ip), vehicle: carboxymethylcellulose (CMC) 94 % of control and 89 % of control | dose: 200.0 mg/kg/injection, schedule: Q04DX002 (ip), vehicle: carboxymethylcellulose (CMC) 98 % of control and 102 % of control | dose: 200.0 mg/kg/injection, schedule: Q04DX003 (ip), vehicle: carboxymethylcellulose (CMC) 89 % of control | [9] 100 % of control | dose: 400.0 mg/kg/injection, schedule: Q01DX009 (ip), vehicle: carboxymethylcellulose (CMC) 94 % of control and 98 % of control | dose: 400.0 mg/kg/injection, schedule: Q04DX002 (ip), vehicle: carboxymethylcellulose (CMC) 98 % of control and 103 % of control | dose: 400.0 mg/kg/injection, schedule: Q04DX003 (ip), vehicle: carboxymethylcellulose (CMC) 98 % of control

O=c1[nH]c2ccccc2c2ccc(Br)cc12
inactive: [7] 104 % of control | [8] 97 % of control | [9] 90 % of control
